Laboratory results from PubChem BioAssay AID2060907 (Molecular Pharmacology Branch, DTP, NCI, 2025).

Tested on: 388556-164-R-J1-PDC complex spheroid viability
Experiment: Anticancer human tumor 388556-164-R-J1-PDC patient-derived colon adenocarcinoma cell line growth inhibition [RAS]
Conditions: for IC50: curve of first compound; for viability, T/C: stronger effect = lower value; active means viability on the fitted dose curve at most 10% of control; inactive means the rest
Outline: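 Agents were tested in combination matrices in half-log decrements from a top concentration at or near clinical Cmax (10 microM if undetermined). Targets were multi-cell spheroids of tumour lines plus HUVEC and MSC stromal cells.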

[1] = second compound 0.000949 µM, first compound 0.000316 µM
[2] = second compound 0.000949 µM, first compound 0.001 µM
[3] = second compound 0.000949 µM, first compound 0.00316 µM
[4] = second compound 0.000949 µM, first compound 0.01 µM
[5] = second compound 0.000949 µM, first compound 0.0316 µM
[6] = second compound 0.000949 µM, first compound 0.1 µM
[7] = second compound 0.003 µM, first compound 0.000316 µM
[8] = second compound 0.003 µM, first compound 0.001 µM
[9] = second compound 0.003 µM, first compound 0.00316 µM
[10] = second compound 0.003 µM, first compound 0.01 µM
[11] = second compound 0.003 µM, first compound 0.0316 µM
[12] = second compound 0.003 µM, first compound 0.1 µM
[13] = second compound 0.00949 µM, first compound 0.000316 µM
[14] = second compound 0.00949 µM, first compound 0.001 µM
[15] = second compound 0.00949 µM, first compound 0.00316 µM
[16] = second compound 0.00949 µM, first compound 0.01 µM
[17] = second compound 0.00949 µM, first compound 0.0316 µM
[18] = second compound 0.00949 µM, first compound 0.1 µM
[19] = second compound 0.03 µM, first compound 0.000316 µM
[20] = second compound 0.03 µM, first compound 0.001 µM
[21] = second compound 0.03 µM, first compound 0.00316 µM
[22] = second compound 0.03 µM, first compound 0.01 µM
[23] = second compound 0.03 µM, first compound 0.0316 µM
[24] = second compound 0.03 µM, first compound 0.1 µM
[25] = second compound 0.0949 µM, first compound 0.000316 µM
[26] = second compound 0.0949 µM, first compound 0.001 µM
[27] = second compound 0.0949 µM, first compound 0.00316 µM
[28] = second compound 0.0949 µM, first compound 0.01 µM
[29] = second compound 0.0949 µM, first compound 0.0316 µM
[30] = second compound 0.0949 µM, first compound 0.1 µM
[31] = second compound 0.3 µM, first compound 0.000316 µM
[32] = second compound 0.3 µM, first compound 0.001 µM
[33] = second compound 0.3 µM, first compound 0.00316 µM
[34] = second compound 0.3 µM, first compound 0.01 µM
[35] = second compound 0.3 µM, first compound 0.0316 µM
[36] = second compound 0.3 µM, first compound 0.1 µM
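Further: spheroids exposed to compound for 7 days before readout.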
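Wherever viability, T/C is given: 100% = DMSO vehicle control luminescence.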

CC(C)n1nc(-c2ccc3oc(N)nc3c2)c2c(N)ncnc21 + CCn1c(-c2cccnc2C(C)OC)c2c3cc(ccc31)N1CCOC(CC(NC(=O)C(C(C)C)N(C)C(=O)C3(F)CCN(C(=O)C#CC(C)(C)N(C)C)CC3)C(=O)N3CCCC(N3)C(=O)OCC(C)(C)C2)C1
0.0498 µM: IC50 (second compound 0.3 µM)
0.0615 µM: IC50 (second compound 0.03 µM)
0.0577 µM: IC50 (second compound 0.003 µM)
0.0568 µM: IC50 (second compound 0.000949 µM)
inactive: viability, T/C [1] 95.8% | viability, T/C [2] 93.2% | viability, T/C [3] 88.7% | viability, T/C [4] 74.5% | viability, T/C [5] 63.6% | viability, T/C [6] 38% | viability, T/C [7] 102% | viability, T/C [8] 90.6% | viability, T/C [9] 86.7% | viability, T/C [10] 77.6% | viability, T/C [11] 64.8% | viability, T/C [12] 37.7% | viability, T/C [13] 99.3% | viability, T/C [14] 97.8% | viability, T/C [15] 96% | viability, T/C [16] 77.3% | viability, T/C [17] 60% | viability, T/C [18] 34.9% | viability, T/C [19] 100% | viability, T/C [20] 87.6% | viability, T/C [21] 89.1% | viability, T/C [22] 82.5% | viability, T/C [23] 60.5% | viability, T/C [24] 41.3% | viability, T/C [25] 93% | viability, T/C [26] 95.6% | viability, T/C [27] 80.2% | viability, T/C [28] 78.6% | viability, T/C [29] 63.8% | viability, T/C [30] 37.9% | viability, T/C [31] 84.3% | viability, T/C [32] 89.4% | viability, T/C [33] 77.2% | viability, T/C [34] 72.5% | viability, T/C [35] 58.9% | viability, T/C [36] 36.8%
0.0574 µM: IC50 (second compound 0.0949 µM)
0.0484 µM: IC50 (second compound 0.00949 µM)

CC(C)n1nc(-c2ccc3oc(N)nc3c2)c2c(N)ncnc21 + CCn1c(-c2cc(N3CCN(C)CC3)cnc2C(C)OC)c2c3cc(ccc31)-c1csc(n1)CC(NC(=O)C1CC1C)C(=O)N1CCCC(N1)C(=O)OCC(C)(C)C2
0.0162 µM: IC50 (second compound 0.00949 µM)
< 0.000316 µM: IC50 (second compound 0.0949 µM) | IC50 (second compound 0.3 µM)
0.0439 µM: IC50 (second compound 0.000949 µM)
0.0052 µM: IC50 (second compound 0.03 µM)
0.0355 µM: IC50 (second compound 0.003 µM)
inactive: viability, T/C [1] 107% | viability, T/C [2] 94.8% | viability, T/C [3] 73.7% | viability, T/C [4] 71.5% | viability, T/C [5] 56.4% | viability, T/C [6] 38% | viability, T/C [7] 88.3% | viability, T/C [8] 80.4% | viability, T/C [9] 72.2% | viability, T/C [10] 68.1% | viability, T/C [11] 50.8% | viability, T/C [12] 34.9% | viability, T/C [13] 82.4% | viability, T/C [14] 78.9% | viability, T/C [15] 59.4% | viability, T/C [16] 56.5% | viability, T/C [17] 47.1% | viability, T/C [18] 27.2% | viability, T/C [19] 60.6% | viability, T/C [20] 55.1% | viability, T/C [21] 62.5% | viability, T/C [22] 37.6% | viability, T/C [23] 34.4% | viability, T/C [24] 21.5% | viability, T/C [25] 46.3% | viability, T/C [26] 42.1% | viability, T/C [27] 39.1% | viability, T/C [28] 34.4% | viability, T/C [29] 27.9% | viability, T/C [30] 18.2% | viability, T/C [31] 30.6% | viability, T/C [32] 32.6% | viability, T/C [33] 27.9% | viability, T/C [34] 23.5% | viability, T/C [35] 20.9% | viability, T/C [36] 17.1%
